{
  "source": "paper PMC5218480",
  "about": "(PLoS ONE, 2017)",
  "test_system": "MV-4-11 cells",
  "assay": "Gene expression microarray analysis (Affymetrix PrimeView) and GSEA",
  "format": "cell-based, human",
  "set-up": "RFU PODN (11730768_x_at) / Fold change /veh PODN (11730768_x_at) / RFU LINC00158 (11744669_a_at) / Fold change /veh LINC00158 (11744669_a_at) / RFU DUSP10 (11751237_a_at) / Fold change /veh DUSP10 (11751237_a_at) / RFU ID3 (11757404_x_at) / Fold change /veh ID3 (11757404_x_at) / RFU PLEKHG5 (11737974_s_at) / Fold change /veh PLEKHG5 (11737974_s_at) / RFU LRRC4B (11730491_at) / Fold change /veh LRRC4B (11730491_at) / RFU GIMAP4 (11747438_a_at) / Fold change /veh GIMAP4 (11747438_a_at) / RFU KRT8 (11758183_x_at) / Fold change /veh KRT8 (11758183_x_at) / RFU CNN1 (11734310_a_at) / Fold change /veh CNN1 (11734310_a_at) / RFU VPS37D (11726825_at) / Fold change /veh VPS37D (11726825_at) / RFU C10orf10 (11716522_x_at) / Fold change /veh C10orf10 (11716522_x_at) / RFU KIR2DL2 /// KIR2DL4 /// KIR2DL5A /// KIR2DL5B /// KIR2DS1 /// KIR2DS2 /// KIR2DS3 /// KIR2DS4 /// KIR3DL3 /// KIR3DL3 /// KIR3DS1 (11738374_at) / Fold change /veh KIR2DL2 /// KIR2DL4 /// KIR2DL5A /// KIR2DL5B /// KIR2DS1 /// KIR2DS2 /// KIR2DS3 /// KIR2DS4 /// KIR3DL3 /// KIR3DL3 /// KIR3DS1 (11738374_at) / RFU C1QL1 (11718748_at) / Fold change /veh C1QL1 (11718748_at) / RFU TMPRSS4 (11747572_a_at) / Fold change /veh TMPRSS4 (11747572_a_at) / RFU HAMP (11756126_x_at) / Fold change /veh HAMP (11756126_x_at) / RFU RNFT2 (11725882_a_at) / Fold change /veh RNFT2 (11725882_a_at) / RFU NR4A2 (11747474_a_at) / Fold change /veh NR4A2 (11747474_a_at) / RFU ABCC12 (11746883_a_at) / Fold change /veh ABCC12 (11746883_a_at) / RFU TMEM136 (11760407_x_at) / Fold change /veh TMEM136 (11760407_x_at) / RFU CLDN22 /// WWC2 (11732394_at) / Fold change /veh CLDN22 /// WWC2 (11732394_at) / RFU HLA-DPB1 (11760878_x_at) / Fold change /veh HLA-DPB1 (11760878_x_at) / RFU SPINT1 (11716480_a_at) / Fold change /veh SPINT1 (11716480_a_at) / RFU GAP43 (11754022_s_at) / Fold change /veh GAP43 (11754022_s_at) / RFU A4GNT (11735810_at) / Fold change /veh A4GNT (11735810_at) / RFU PRB3 (11715151_x_at) / Fold change /veh PRB3 (11715151_x_at) / RFU TUBB4B (11761932_at) / Fold change /veh TUBB4B (11761932_at) / RFU CAPN14 (11732068_a_at) / Fold change /veh CAPN14 (11732068_a_at) / RFU TMCC2 (11721928_a_at) / Fold change /veh TMCC2 (11721928_a_at) / RFU IRGQ (11745062_a_at) / Fold change /veh IRGQ (11745062_a_at) / RFU FAM174B (11720279_a_at) / Fold change /veh FAM174B (11720279_a_at) / RFU TMPRSS4 (11748680_a_at) / Fold change /veh TMPRSS4 (11748680_a_at) / RFU FAM212B (11763350_a_at) / Fold change /veh FAM212B (11763350_a_at) / RFU PLEKHG5 (11743358_a_at) / Fold change /veh PLEKHG5 (11743358_a_at) / RFU ZSCAN30 (11745921_a_at) / Fold change /veh ZSCAN30 (11745921_a_at) / RFU CMKLR1 (11741424_a_at) / Fold change /veh CMKLR1 (11741424_a_at) / RFU LOC101060620 /// MAPK8IP1 (11723275_at) / Fold change /veh LOC101060620 /// MAPK8IP1 (11723275_at) / RFU SPTSSB (11747773_x_at) / Fold change /veh SPTSSB (11747773_x_at) / RFU PRSS12 (11739890_at) / Fold change /veh PRSS12 (11739890_at) / RFU BIN1 (11741810_x_at) / Fold change /veh BIN1 (11741810_x_at) / RFU WNT11 (11732464_a_at) / Fold change /veh WNT11 (11732464_a_at) / RFU C10orf10 (11716521_a_at) / Fold change /veh C10orf10 (11716521_a_at) / RFU C5orf56 (11738089_at) / Fold change /veh C5orf56 (11738089_at) / RFU CYB561 (11721691_x_at) / Fold change /veh CYB561 (11721691_x_at) / RFU ANKRD19P (11752326_a_at) / Fold change /veh ANKRD19P (11752326_a_at) / RFU OR2T12 /// OR2T33 /// OR2T8 (11738714_s_at) / Fold change /veh OR2T12 /// OR2T33 /// OR2T8 (11738714_s_at) / RFU VCAN (11748164_a_at) / Fold change /veh VCAN (11748164_a_at) / RFU JSRP1 (11732532_at) / Fold change /veh JSRP1 (11732532_at) / RFU KRTAP10-11 (11738290_x_at) / Fold change /veh KRTAP10-11 (11738290_x_at) / RFU MYO3A (11730013_a_at) / Fold change /veh MYO3A (11730013_a_at) / RFU EBF3 (11725865_a_at) / Fold change /veh EBF3 (11725865_a_at) / RFU CAMK2N1 (11719241_x_at) / Fold change /veh CAMK2N1 (11719241_x_at) / RFU C5orf56 (11738088_a_at) / Fold change /veh C5orf56 (11738088_a_at) / RFU OLFML3 (11715873_a_at) / Fold change /veh OLFML3 (11715873_a_at) / RFU LOC100653217 /// NTM (11731650_a_at) / Fold change /veh LOC100653217 /// NTM (11731650_a_at) / RFU MAPK11 (11762145_a_at) / Fold change /veh MAPK11 (11762145_a_at) / RFU FIZ1 (11724087_x_at) / Fold change /veh FIZ1 (11724087_x_at) / RFU OASL (11726364_x_at) / Fold change /veh OASL (11726364_x_at) / RFU SOX15 (11748057_x_at) / Fold change /veh SOX15 (11748057_x_at) / RFU CD79A (11719716_a_at) / Fold change /veh CD79A (11719716_a_at) / RFU HIST1H1D (11736915_at) / Fold change /veh HIST1H1D (11736915_at) / RFU CASKIN2 (11723855_a_at) / Fold change /veh CASKIN2 (11723855_a_at) / RFU LOC730098 (11760151_x_at) / Fold change /veh LOC730098 (11760151_x_at) / RFU OR4N2 (11742367_at) / Fold change /veh OR4N2 (11742367_at) / RFU PRRT2 (11749266_a_at) / Fold change /veh PRRT2 (11749266_a_at) / RFU SNX32 (11753110_a_at) / Fold change /veh SNX32 (11753110_a_at) / RFU CDHR5 (11726645_a_at) / Fold change /veh CDHR5 (11726645_a_at) / RFU RCAN1 (11760418_a_at) / Fold change /veh RCAN1 (11760418_a_at) / RFU FAM167A (11723789_a_at) / Fold change /veh FAM167A (11723789_a_at) / RFU FAM26E (11764081_at) / Fold change /veh FAM26E (11764081_at) / RFU ISYNA1 (11749810_s_at) / Fold change /veh ISYNA1 (11749810_s_at) / RFU ACY1 (11761880_at) / Fold change /veh ACY1 (11761880_at) / RFU 11764098_at / Fold change /veh 11764098_at / RFU SAMD14 (11745864_x_at) / Fold change /veh SAMD14 (11745864_x_at) / RFU NPB (11741838_a_at) / Fold change /veh NPB (11741838_a_at) / RFU TMPRSS6 (11731388_a_at) / Fold change /veh TMPRSS6 (11731388_a_at) / RFU KRTAP10-2 (11738614_at) / Fold change /veh KRTAP10-2 (11738614_at) / RFU ARHGAP8 /// PRR5-ARHGAP8 (11727945_x_at) / Fold change /veh ARHGAP8 /// PRR5-ARHGAP8 (11727945_x_at) / RFU KRTAP5-7 /// NADSYN1 (11734609_at) / Fold change /veh KRTAP5-7 /// NADSYN1 (11734609_at) / RFU RASL12 (11751679_a_at) / Fold change /veh RASL12 (11751679_a_at) / RFU CDKN2B (11736163_a_at) / Fold change /veh CDKN2B (11736163_a_at) / RFU PRF1 (11729649_at) / Fold change /veh PRF1 (11729649_at) / RFU, ZNF638 /// ZNF638-IT1 / Fold change vs veh, ZNF638 /// ZNF638-IT1 / RFU, PANK3 / Fold change vs veh, PANK3 / RFU, SH3YL1 / Fold change vs veh, SH3YL1 / RFU, ZEB2 / Fold change vs veh, ZEB2 / RFU, NRIP1 / Fold change vs veh, NRIP1 / RFU, PTTG1IP / Fold change vs veh, PTTG1IP / RFU, CAPN2 / Fold change vs veh, CAPN2 / RFU, MED14 / Fold change vs veh, MED14 / RFU, SNORA58 / Fold change vs veh, SNORA58 / RFU, C1orf63 / Fold change vs veh, C1orf63 / RFU, LRRFIP1 / Fold change vs veh, LRRFIP1 / RFU, NDUFAF7 / Fold change vs veh, NDUFAF7 / RFU, SLC12A2 / Fold change vs veh, SLC12A2 / RFU, IBTK / Fold change vs veh, IBTK / RFU, ESF1 / Fold change vs veh, ESF1 / Fold change vs veh, TMEM50B / RFU, TAOK1 / Fold change vs veh, TAOK1 / RFU, ACBD3 / Fold change vs veh, ACBD3 / RFU, TMA16 / Fold change vs veh, TMA16 / RFU, RWDD3 / Fold change vs veh, RWDD3 / RFU, BCAT1 / Fold change vs veh, BCAT1 / RFU, EDEM3 / Fold change vs veh, EDEM3 / RFU, TMEM33 / Fold change vs veh, TMEM33 / RFU, WDR75 / Fold change vs veh, WDR75 / RFU, AHCTF1 / Fold change vs veh, AHCTF1 / RFU, TFRC / Fold change vs veh, TFRC / RFU, ZDHHC17 / Fold change vs veh, ZDHHC17 / RFU, NOM1 / Fold change vs veh, NOM1 / RFU, ARL8B / Fold change vs veh, ARL8B / RFU, ZBTB11 / Fold change vs veh, ZBTB11 / RFU, TAMM41 / Fold change vs veh, TAMM41 / RFU, KIAA1704 /// LOC100996395 / Fold change vs veh, KIAA1704 /// LOC100996395 / RFU, ING1 / Fold change vs veh, ING1 / RFU, TRMT61B / Fold change vs veh, TRMT61B / RFU, FUBP3 / Fold change vs veh, FUBP3 / RFU, TP53 / Fold change vs veh, TP53 / RFU, TNKS2 / Fold change vs veh, TNKS2 / RFU, ZFP14 / Fold change vs veh, ZFP14 / RFU, ACTR2 / Fold change vs veh, ACTR2 / RFU, PPP3R1 / Fold change vs veh, PPP3R1 / RFU, PIK3R1 / Fold change vs veh, PIK3R1 / RFU, HNRNPA1 / Fold change vs veh, HNRNPA1 / RFU, RNF170 / Fold change vs veh, RNF170 / RFU, ZNF28 / Fold change vs veh, ZNF28 / RFU, RNGTT / Fold change vs veh, RNGTT / RFU, OGT / Fold change vs veh, OGT / RFU, BRD1 / Fold change vs veh, BRD1 / RFU, MARS / Fold change vs veh, MARS / RFU, ZNF655 / Fold change vs veh, ZNF655 / RFU, FAHD1 / Fold change vs veh, FAHD1 / RFU, BDP1 / Fold change vs veh, BDP1 / RFU, LRRCC1 / Fold change vs veh, LRRCC1 / RFU, ARID1A / Fold change vs veh, ARID1A / RFU, ZNF146 / Fold change vs veh, ZNF146 / RFU, ZNF330 / Fold change vs veh, ZNF330 / RFU, GPN3 / Fold change vs veh, GPN3 / RFU, C9orf123 / Fold change vs veh, C9orf123 / RFU, N4BP2L2 / Fold change vs veh, N4BP2L2 / RFU, ARFIP1 / Fold change vs veh, ARFIP1 / RFU, FAM179B / Fold change vs veh, FAM179B / RFU, BCL10 / Fold change vs veh, BCL10 / RFU, UHRF1BP1L / Fold change vs veh, UHRF1BP1L / RFU, BET1 / Fold change vs veh, BET1 / RFU, CNOT2 / Fold change vs veh, CNOT2 / RFU, ZNF268 / Fold change vs veh, ZNF268 / Fold change vs veh, ZNF507 / RFU, DGCR2 / Fold change vs veh, DGCR2 / RFU, WDSUB1 / Fold change vs veh, WDSUB1 / Fold change vs veh, HSP90B1 /// MIR3652 / RFU, ADSS / Fold change vs veh, ADSS / RFU, GK / Fold change vs veh, GK / RFU, ZNF148 / Fold change vs veh, ZNF148 / RFU, TAF9 / Fold change vs veh, TAF9 / RFU, SLC1A5 / Fold change vs veh, SLC1A5 / RFU, SLMO2 / Fold change vs veh, SLMO2 / RFU, ABCC4 / Fold change vs veh, ABCC4 / RFU, LOC101060439 /// RAP1B / Fold change vs veh, LOC101060439 /// RAP1B / RFU, RFX7 / Fold change vs veh, RFX7 / RFU, GTPBP10 / Fold change vs veh, GTPBP10 / RFU, CNEP1R1 / Fold change vs veh, CNEP1R1 / RFU, BIVM-ERCC5 /// ERCC5 / Fold change vs veh, BIVM-ERCC5 /// ERCC5 / RFU, ILF3 / Fold change vs veh, ILF3 / RFU 11762660_at / Fold change /veh 11762660_at / RFU VCAN (11757783_s_at) / Fold change /veh VCAN (11757783_s_at) / RFU DDX43 (11728927_at) / Fold change /veh DDX43 (11728927_at) / RFU KRT8 (11758188_x_at) / Fold change /veh KRT8 (11758188_x_at) / RFU NKD1 (11759106_at) / Fold change /veh NKD1 (11759106_at) / RFU SRD5A1 (11742802_a_at) / Fold change /veh SRD5A1 (11742802_a_at) / RFU TPSAB1 /// TPSB2 (11721975_s_at) / Fold change /veh TPSAB1 /// TPSB2 (11721975_s_at) / RFU GSTM3 (11746129_a_at) / Fold change /veh GSTM3 (11746129_a_at) / RFU IL23R (11737362_x_at) / Fold change /veh IL23R (11737362_x_at) / RFU TMEM51 (11727254_a_at) / Fold change /veh TMEM51 (11727254_a_at) / RFU PIWIL2 (11732686_x_at) / Fold change /veh PIWIL2 (11732686_x_at) / RFU ORM1 (11744905_x_at) / Fold change /veh ORM1 (11744905_x_at) / RFU CCDC152 (11743942_at) / Fold change /veh CCDC152 (11743942_at) / RFU ECM1 (11717891_a_at) / Fold change /veh ECM1 (11717891_a_at) / RFU IL23R (11748794_a_at) / Fold change /veh IL23R (11748794_a_at) / RFU TNFAIP8L3 (11732012_x_at) / Fold change /veh TNFAIP8L3 (11732012_x_at) / RFU MBOAT4 (11741988_at) / Fold change /veh MBOAT4 (11741988_at) / RFU 11764193_at / Fold change /veh 11764193_at / RFU TMEM53 (11763286_at) / Fold change /veh TMEM53 (11763286_at) / RFU MAGEB2 (11727129_at) / Fold change /veh MAGEB2 (11727129_at) / RFU TMEM200A (11744735_a_at) / Fold change /veh TMEM200A (11744735_a_at) / RFU CCDC152 (11751479_a_at) / Fold change /veh CCDC152 (11751479_a_at) / RFU FAM211A (11726209_a_at) / Fold change /veh FAM211A (11726209_a_at) / RFU RGS16 (11746705_a_at) / Fold change /veh RGS16 (11746705_a_at) / RFU VCAN (11755009_s_at) / Fold change /veh VCAN (11755009_s_at) / RFU RHOB (11743442_s_at) / Fold change /veh RHOB (11743442_s_at) / RFU RGS16 (11720943_a_at) / Fold change /veh RGS16 (11720943_a_at) / RFU RGS16 (11720944_at) / Fold change /veh RGS16 (11720944_at) / RFU, VPS4B / Fold change vs veh, VPS4B / RFU, CREB1 / Fold change vs veh, CREB1 / RFU, DNAJC13 / Fold change vs veh, DNAJC13 / RFU, GNAQ / Fold change vs veh, GNAQ / RFU, CDK5R1 / Fold change vs veh, CDK5R1 / RFU, ZRANB3 / Fold change vs veh, ZRANB3 / RFU, CUL4A / Fold change vs veh, CUL4A / RFU, CCNY / Fold change vs veh, CCNY / RFU, UFL1 / Fold change vs veh, UFL1 / RFU, COG3 / Fold change vs veh, COG3 / RFU, DIAPH2 / Fold change vs veh, DIAPH2 / RFU, SKA2 / Fold change vs veh, SKA2 / RFU, AFF3 / Fold change vs veh, AFF3 / RFU, LMF1 / Fold change vs veh, LMF1 / RFU, IPO11 / Fold change vs veh, IPO11 / RFU, DFFB / Fold change vs veh, DFFB / RFU, FOXP1 / Fold change vs veh, FOXP1 / RFU, CARD8 / Fold change vs veh, CARD8 / RFU, STRN3 / Fold change vs veh, STRN3 / RFU, ADK / Fold change vs veh, ADK / RFU, RASSF2 / Fold change vs veh, RASSF2 / RFU, WIPF1 / Fold change vs veh, WIPF1 / RFU, LARP1B / Fold change vs veh, LARP1B / RFU, RASA1 / Fold change vs veh, RASA1 / RFU, RB1 / Fold change vs veh, RB1 / RFU, PPFIA1 / Fold change vs veh, PPFIA1 / RFU, MAT2A / Fold change vs veh, MAT2A / RFU, CCT5 / Fold change vs veh, CCT5 / RFU, WDR92 / Fold change vs veh, WDR92 / RFU, CUX1 / Fold change vs veh, CUX1 / RFU, TTC7A / Fold change vs veh, TTC7A / RFU, TMEM135 / Fold change vs veh, TMEM135 / RFU, DEPTOR / Fold change vs veh, DEPTOR / RFU, CPM / Fold change vs veh, CPM / RFU, DNAJB6 / Fold change vs veh, DNAJB6 / RFU, CACNA2D3 / Fold change vs veh, CACNA2D3 / RFU, DTX4 / Fold change vs veh, DTX4 / RFU, TFCP2 / Fold change vs veh, TFCP2 / RFU, GMCL1 /// GMCL1P1 / Fold change vs veh, GMCL1 /// GMCL1P1 / RFU, AEBP2 / Fold change vs veh, AEBP2 / RFU, SNHG1 /// SNORD22 /// SNORD25 /// SNORD26 /// SNORD27 /// SNORD28 /// SNORD29 /// SNORD31 / Fold change vs veh, SNHG1 /// SNORD22 /// SNORD25 /// SNORD26 /// SNORD27 /// SNORD28 /// SNORD29 /// SNORD31 / Fold change (Aza/veh), C12orf56 (ProbeSet 11735607_a_at) / Fold change (ACY-1035/veh), C12orf56 (ProbeSet 11735607_a_at) / Fold change (Aza/veh), FGFR1OP (ProbeSet 11751329_s_at) / Fold change (ACY-1035/veh), FGFR1OP (ProbeSet 11751329_s_at) / Fold change (Aza/veh), VPS36 (ProbeSet 11739960_a_at) / Fold change (ACY-1035/veh), VPS36 (ProbeSet 11739960_a_at) / RFU SYPL1 (11715823_x_at) / Fold change /veh SYPL1 (11715823_x_at) / RFU IGFBP7 (11715501_s_at) / Fold change /veh IGFBP7 (11715501_s_at) / RFU REEP3 (11722064_at) / Fold change /veh REEP3 (11722064_at) / RFU IGLL1 (11728026_x_at) / Fold change /veh IGLL1 (11728026_x_at): dose or concentration left out as unconfirmed",
  "details": "ProbeSet 11731583_a_at; LIST D",
  "data": [
    {"compound": "Nc1ccc(-c2cccs2)cc1NC(=O)c1ccc2c(c1)cc(C1CC1)n2CCN1CCOCC1", "note": "[ACY-1035]", "values": [
      {"measurement": "Fold change vs veh, LARP1B", "result": 0.85}
    ]}
  ]
}
